These results are taken from patent EP4139472B1, “A METHOD FOR BIOTESTING OF A CONDENSED PHASE SUBSTANCES AND/OR MIXTURES ECOTOXICITY AND USE OF THE METHOD IN ECOTOXYCOLOGY” (Uniwersytet Jana Dlugosza w Czestochowie, priority 2020, dated 2021).

This test relates to A. fischeri bacteria. Kind of test: Bioluminescence inhibition of A. fischeri, modified Microtox Basic Solid Phase Test (synthetic sample with inert auxiliary substance). The class given is cell-based, Aliivibrio fischeri. To be noted: for EC50: Aliivibrio fischeri. The text has this:
According to the invention, instead of a homogeneous solid sample with a relatively large mass (7 g in the Microtox® Basic Solid Phase Test), which is often unreachable for laboratory measurements of expensive or innovative materials, a so-called synthetic sample (as opposed to natural samples, i.e. soils and bottom sediments) of the same mass, containing the tested substance and an inert auxiliary substance (so called solid matrix) is being created. As a result, the synthetic sample simulates the soil contaminated with the tested substance. The synthetic sample prepared in such a way can be dispersed in the diluent and processed further according to the Microtox® Basic Solid Phase Test protocol. The Microtox® Basic Solid Phase Test protocol provides a series of steps covering, in turn: • suspending 7 g of the test sample in 35 ml of diluent in a 50 ml beaker, mixing for 10 min; • taking 2 mL of the suspension described above, while stirring it, into an appropriate cuvette; • performing a series of 1:2 dilutions of the test sample using the diluent; • reconstitution of freeze-dried Aliivibrio fischeri bacteria; • preparation and 15 min incubation of the reagent (10 µL of reconstituted bacteria and 0.5 mL of diluent); • bioluminescence measurement for time zero (bioluminescence before contact with the sample); • adding the reagent to each test sample and to the control cuvette; • incubation for 5 min, measurement of bioluminescence after 5 min incubation of bacteria with the sample; • incubation for another 10 min, measurement of bioluminescence after 15 min incubation of bacteria with the sample. The Microtox® protocol provides for the use of a 30-well incubator block maintaining a temperature of 15° C in the wells of the sample cuvettes and 5.5° C in the well of the bacterial suspension. According to the invention, a sample containing the substance to be test and an auxiliary substance is subjected to the procedure provided for in the Microtox® Basic Solid Phase Test. The pre-suspension is made by mixing the synthetic sample with a diluent (Microtox® Solid Phase Diluent: 3.5% aqueous NaCl solution) in appropriate proportions provided for in the measurement protocol, for example 7 g of the sample is mixed with 35 mL of diluent (weight/volume ratio of the sample to diluent is 1:5 g/mL), but after validation it is possible to use dispersions of any proportion (preferably from 1:4 g/mL to 1:6 g/mL) and scale (preferably samples weighing 3-10 g depending on capacity of the equipment used). In the case of hydrophobic chemicals, it is allowed to suspend them in a mixture of methanol with a diluent (e.g. 4% methanol solution) to increase their solubility. Then, the suspension is stirred in a tall beaker on a stirrer so that, as a result of mixing, the vortex always has the same, repeatable height, equal to half the height of the liquid level. A representative sample for further dilutions is drawn with an automatic pipette while the suspension is stirred, from half the depth of the suspension according to the Microtox® protocol. The further steps in the measurement (including but not limited to dilution, sampling, luminescence measurement, etc.) also follow the Microtox® Basic Solid Phase Test Procedure. […] A representative sample for further dilutions was taken from half the depth of the suspension without stirring interruption according to the Microtox® Basic Solid Phase Test protocol. […] The measurements were carried out in triplicate and the EC50 values were determined after 5 and 15 minutes of exposure. The obtained results with 95% confidence intervals, as well as the correlation coefficients are summarized below, in Table 2. Table 2. EC50 values [mg/L] obtained after 5 and 15 minutes exposure of A. fischeri bacteria to pure valsartan along with the corresponding confidence intervals.

Values joined by “and” are separate entries in the source; they are usually repeats but may differ in a detail not shown here. Identical values can stand only once. Like-named read-outs stand apart in the source and are kept apart here.

With `CCCCC(=O)N(Cc1ccc(-c2ccccc2-c2nnn[nH]2)cc1)[C@H](C(=O)O)C(C)C` [valsartan], under “5 min exposure, 0.160 g pure valsartan + 6.840 g quartz sand in 35 mL diluent, single replicate, 95% confidence interval in brackets”, the “EC50 5 min” value was 172.06 (102.02-290.17) mg/L and 88.31 (83.90-92.91) mg/L. The “EC50 15 min” value (15 min exposure, 0.160 g pure valsartan + 6.840 g quartz sand in 35 mL diluent, single replicate, 95% confidence interval in brackets) is 341.70 (338.33-358.97) mg/L and 242.80 (103.75-568.26) mg/L and 120.04 (99.20-145.28) mg/L. In addition, the half-maximal effective concentration (EC50) (usually the midpoint of the concentration-response curve) was found to be 169 µg/mL (5 min, 5 min exposure, 0.160 g pure valsartan + 6.840 g quartz sand in 35 mL diluent, single replicate, 95% confidence interval in brackets, read-out: EC50 5 min); 143 ± 38.8 µg/mL (5 min, 5 min exposure, pure valsartan + quartz sand, mean of three replicates, read-out: EC50 5 min, Mean); 235 ± 90.7 µg/mL (0.25 h, 15 min exposure, pure valsartan + quartz sand, mean of three replicates, read-out: EC50 15 min, Mean).

Take `CCCCc1nc(Cl)c(CO)n1Cc1ccc(-c2ccccc2-c2nn[nH]n2)cc1` [losartan potassium]: the “EC50 5 min” value (5 min exposure, 0.200 g losartan potassium + 5.600 g quartz sand in 35 mL diluent (1:[…]), single replicate, 95% confidence interval in brackets) was 594.25 (343.09-1028.98) mg/L and 667.23 (490.17-908.21) mg/L. Further, the “EC50 15 min” value (15 min exposure, 0.200 g losartan potassium + 5.600 g quartz sand in 35 mL diluent (1:[…]), single replicate, 95% confidence interval in brackets) is 694.10 (541.64-889.82) mg/L and 629.33 (172.93-2289.90) mg/L. Moreover, the EC50 (5 min, 5 min exposure, 0.200 g losartan potassium + 5.600 g quartz sand in 35 mL diluent (1:[…]), single replicate, 95% confidence interval in brackets, read-out: EC50 5 min) stood at 490 µg/mL; the EC50 (5 min, 5 min exposure, pure losartan potassium + quartz sand, mean of three replicates, read-out: EC50 5 min, Mean) came to 584 ± 72.7 µg/mL; the EC50 (0.25 h, 15 min exposure, 0.200 g losartan potassium + 5.600 g quartz sand in 35 mL diluent (1:[…]), single replicate, 95% confidence interval in brackets, read-out: EC50 15 min) stood at 654 µg/mL; the EC50 (0.25 h, 15 min exposure, pure losartan potassium + quartz sand, mean of three replicates, read-out: EC50 15 min, Mean) was found to be 659 ± 26.7 µg/mL.
